Source: article PMC9669214 (Biochemistry, 2022)

Target: GacI-PP (Streptomyces glaucescens, UniProt B0B0T9)
Test: LC-Q-TOF-MS of product V1P
Type: biochemical
Settings: V1,7PP 1 mM, Tris-HCl 20 mM pH 7.5, 30 °C

## O=P(O)(O)OCC1=CC(OP(=O)(O)O)C(O)C(O)C1O (stereo not shown) [compound 8, V1,7PP]
  LC-Q-TOF-MS of product V1P; MESG/PNP initial velocity: The protein was then incubated with V1,7PP and the formation of V1P was confirmed
